The values that follow come from patent US12384798B2, “ACC inhibitor and use thereof” (NANJING RUIJIE PHARMA CO., LTD., priority 2019, dated 2025).

The subject of the assay is HepG2 cells. Kind of assay: [2-14C]-acetate incorporation assay in HepG2 cells. The assay is classed as cell-based. The settings on record: for IC50: Homo sapiens, HepG2 cells, read-out: IC50 [2-14C]-acetate binding assay. Here is the method:
[2-^14C]-Acetate Incorporation Assay in HepG2 Cells
DMEM (GIBCO, catalog number: 11965-092) was used as a complete culture medium for HepG2 cells (ATCC, catalog number: HB-8064). 10% fetal bovein serum (FBS, GIBCO, catalog number: 10099-141), penicillin (100 units/mL) and streptomycin (100 μg/mL) (Pen/Strep, GIBCO, catalog number: 15140-122) were added to a DMEM culture medium.
HepG2 cells were cultured in a 37° C. incubator holding 5% carbon dioxide, and passaged every 2-3 days.
The HepG2 cells were spread on a 24-well plate (Corning, catalog number: 3524) at a density of 2×10^5 cells-well, 500 μL per well, and cultured in a 37° C. incubator holding 5% carbon dioxide. On the fourth day of culture, 50 μL of a compound diluted at a gradient of 1:3 was added, with the final concentration of DMSO of 0.5% (v/v); and the cells were cultured for 1 hour in the incubator. 1 μCi [2-^14C]-sodium acetate (Perkin Elmer, catalog number: NEC085H001MC) was added to each well, and culture was conducted for another 5 hours. The culture medium in each well was transferred to a 15 mL centrifugal tube (BD, catalog number: 352096); 0.5 mL of 0.1 M NaOH was added; the cells were blown and washed repeatedly, and then transferred to new centrifugal tubes. Then, 1 mL of ethanol and 0.17 mL of 50% KOH solution were added to each centrifugal tube, which was then treated in a water bath at 90° C. for 1 hour. Next, the mixture was cooled to room temperature; 5 mL of petroleum ether was added to each centrifugal tube, which was turned upside down several times for mixing; the resulting mixture was centrifuged for 5 minutes (Eppendorf, Model: 5702, 1000 rpm); and an upper organic phase was discarded. 1 mL of concentrated hydrochloric acid was added to each centrifugal tube and centrifuged for 5 minutes, and 4 mL of petroleum ether was transferred into a glass tube (18×180 mm). The sample in the glass tube was dried at 64° C., and then dissolved and resuspended by addition of 400 μL of spotting solution (chloroform:n-hexane=1:1). 50 μL of the dissolved sample was drawn by a pipette (BIOHIT, Model: Proline Plus), and spotted onto an Isoplate-96-microwell plate (Perkin Elmer, catalog number: 6005040), and 200 μL of ULTIMA GOLD scintillation solution (Perkin Elmer, catalog number: 77-16061) was added, standing for 5 minutes. Finally, MicroBeta (PerkinElmer, Model: 2450) was used to read scintillation signals.
A 4-parameter logistic model or sigmoidal dose-response model in XLFit 5.3.1.3 (2006-2011 I D Business Solutions Limited) was used to fit IC50: fit=(A+((B−A)/(1+((C/x)^D)))); where the x-axis represented the log of compound concentration, and the y-axis represented count per minute (CPM).

Take `COc1ccccc1[C@H](Cn1c(=O)n([C@H]2C[C@H](CC(=O)O)C2)c(=O)c2c(C)c(-c3ncco3)sc21)OC1CCOCC1` [c-3-1, 2-((1R,3r)-3-(1-((R)-2-(2-methoxyphenyl)-2-((tetrahydro-2H-pyran-4-yl)oxy)ethyl)-5-methyl-6-(oxazol-2-yl)-2,4-dioxo-1,2-dihydrothieno[2,3-d]pyrimidine-3(4H)-yl)cyclobutyl)acetic acid]: the “inhibitory properties against HepG2 cells (in words)” value was “good inhibitory properties” and the IC50 was determined as 0.0131 µM.

For `COc1ccccc1[C@H](Cn1c(=O)n([C@H]2C[C@@H](CC(=O)O)C2)c(=O)c2c(C)c(-c3ncco3)sc21)OC1CCOCC1` [c-3-2, 2-((1S,3s)-3-(1-((R)-2-(2-methoxyphenyl)-2-((tetrahydro-2H-pyran-4-yl)oxy)ethyl)-5-methyl-6-(oxazol-2-yl)-2,4-dioxo-1,2-dihydrothieno[2,3-d]pyrimidine-3(4H)-yl)cyclobutyl)acetic acid], the “inhibitory properties against HepG2 cells (in words)” value was “good inhibitory properties” and the IC50 amounted to 0.018 µM.
